From the CheMixHub viscosity set

Assay: xn = mol fraction of the nth substance listed

CCCCN + CCCCO
Conditions	viscosity [mPa·s]
293.15 K, 101 kPa, x1 = 0.1	2.51
293.15 K, 101 kPa, x1 = 0.3	1.85
293.15 K, 101 kPa, x1 = 0.5	1.25
293.15 K, 101 kPa, x1 = 0.7	0.95
293.15 K, 101 kPa, x1 = 0.9	0.68
298.15 K, 100 kPa, x2 = 0.099	0.553
298.15 K, 100 kPa, x2 = 0.195	0.663
298.15 K, 100 kPa, x2 = 0.294	0.794
298.15 K, 100 kPa, x2 = 0.401	0.951
298.15 K, 100 kPa, x2 = 0.493	1.101
298.15 K, 100 kPa, x2 = 0.6	1.312
298.15 K, 100 kPa, x2 = 0.695	1.531
298.15 K, 100 kPa, x2 = 0.8	1.818
298.15 K, 100 kPa, x2 = 0.893	2.131
298.15 K, 101.32 kPa, x2 = 0.0983	0.5497
298.15 K, 101.32 kPa, x2 = 0.1986	0.6488
298.15 K, 101.32 kPa, x2 = 0.2972	0.7685
298.15 K, 101.32 kPa, x2 = 0.4004	0.9222
298.15 K, 101.32 kPa, x2 = 0.4976	1.085
298.15 K, 101.32 kPa, x2 = 0.5988	1.291
298.15 K, 101.32 kPa, x2 = 0.7009	1.518
298.15 K, 101.32 kPa, x2 = 0.7974	1.782
298.15 K, 101.32 kPa, x2 = 0.899	2.123
303.15 K, 101 kPa, x1 = 0.01068	2.228
303.15 K, 101 kPa, x1 = 0.02055	2.205
303.15 K, 101 kPa, x1 = 0.0277	2.185
303.15 K, 101 kPa, x1 = 0.04127	2.155
303.15 K, 101 kPa, x1 = 0.05004	2.135
303.15 K, 101 kPa, x1 = 0.05896	2.116
303.15 K, 101 kPa, x1 = 0.07244	2.087
303.15 K, 101 kPa, x1 = 0.08331	2.059
303.15 K, 101 kPa, x1 = 0.09019	2.04
303.15 K, 101.33 kPa, x1 = 0.092	2.08
303.15 K, 101.33 kPa, x1 = 0.1008	1.909
303.15 K, 101.33 kPa, x1 = 0.1886	1.829
303.15 K, 101.33 kPa, x1 = 0.2007	1.627
303.15 K, 101.33 kPa, x1 = 0.2824	1.565
303.15 K, 101.33 kPa, x1 = 0.3004	1.395
303.15 K, 101.33 kPa, x1 = 0.3824	1.314
303.15 K, 101.33 kPa, x1 = 0.4	1.191
303.15 K, 101.33 kPa, x1 = 0.5009	1.019
303.15 K, 101.33 kPa, x1 = 0.5186	1.036
303.15 K, 101.33 kPa, x1 = 0.6001	0.869
303.15 K, 101.33 kPa, x1 = 0.6186	0.8627
303.15 K, 101.33 kPa, x1 = 0.6997	0.734
303.15 K, 101.33 kPa, x1 = 0.7158	0.7221
303.15 K, 101.33 kPa, x1 = 0.7999	0.625
303.15 K, 101.33 kPa, x1 = 0.8131	0.6087
303.15 K, 101.33 kPa, x1 = 0.9001	0.536
303.15 K, 101.33 kPa, x1 = 0.9011	0.5224
313.15 K, 101.3 kPa, x2 = 0.0992	0.4434
313.15 K, 101.3 kPa, x2 = 0.1967	0.516
313.15 K, 101.3 kPa, x2 = 0.2981	0.602
313.15 K, 101.3 kPa, x2 = 0.398	0.7038
313.15 K, 101.3 kPa, x2 = 0.4956	0.8181
313.15 K, 101.3 kPa, x2 = 0.5979	0.9549
313.15 K, 101.3 kPa, x2 = 0.6978	1.108
313.15 K, 101.3 kPa, x2 = 0.8009	1.289
313.15 K, 101.3 kPa, x2 = 0.9	1.503
313.15 K, 101.33 kPa, x1 = 0.092	1.662
313.15 K, 101.33 kPa, x1 = 0.1008	1.518
313.15 K, 101.33 kPa, x1 = 0.1886	1.476
313.15 K, 101.33 kPa, x1 = 0.2007	1.305
313.15 K, 101.33 kPa, x1 = 0.2824	1.286
313.15 K, 101.33 kPa, x1 = 0.3004	1.12
313.15 K, 101.33 kPa, x1 = 0.3824	1.086
313.15 K, 101.33 kPa, x1 = 0.4	0.976
313.15 K, 101.33 kPa, x1 = 0.5009	0.843
313.15 K, 101.33 kPa, x1 = 0.5186	0.856
313.15 K, 101.33 kPa, x1 = 0.6001	0.73
313.15 K, 101.33 kPa, x1 = 0.6186	0.7186
313.15 K, 101.33 kPa, x1 = 0.6997	0.622
313.15 K, 101.33 kPa, x1 = 0.7158	0.6085
313.15 K, 101.33 kPa, x1 = 0.7999	0.539
313.15 K, 101.33 kPa, x1 = 0.8131	0.5227
313.15 K, 101.33 kPa, x1 = 0.9001	0.47
313.15 K, 101.33 kPa, x1 = 0.9011	0.4542
323.15 K, 101.33 kPa, x1 = 0.1008	1.228
323.15 K, 101.33 kPa, x1 = 0.2007	1.065
323.15 K, 101.33 kPa, x1 = 0.3004	0.92
323.15 K, 101.33 kPa, x1 = 0.4	0.803
323.15 K, 101.33 kPa, x1 = 0.5009	0.7
323.15 K, 101.33 kPa, x1 = 0.6001	0.615
323.15 K, 101.33 kPa, x1 = 0.6997	0.534
323.15 K, 101.33 kPa, x1 = 0.7999	0.467
323.15 K, 101.33 kPa, x1 = 0.9001	0.407

O=C([O-])c1ccccc1O.[Na+] + O
viscosity [mPa·s]
Conditions	293.15 K	298.15 K	303.15 K	308.15 K	313.15 K	318.15 K
100 kPa, x1 = 5.685e-05	1.003	0.8913	0.7982	0.7198	0.6537	–
100 kPa, x1 = 0.0001129	1.006	0.8924	0.7983	0.7207	0.6543	–
100 kPa, x1 = 0.0004518	1.013	0.8989	0.8049	0.7259	0.659	–
100 kPa, x1 = 0.0009067	1.024	0.9079	0.8132	0.7334	0.6657	–
100 kPa, x1 = 0.001366	1.037	0.9164	0.8198	0.7394	0.6711	–
100 kPa, x1 = 0.001826	1.045	0.9259	0.8289	0.748	0.6781	–
100 kPa, x1 = 0.002292	1.056	0.9367	0.8375	0.7552	0.6844	–
100 kPa, x1 = 0.00276	1.067	0.9449	0.8458	0.7614	0.6908	–
100 kPa, x1 = 0.003231	1.076	0.9506	0.8501	0.7666	0.6959	–
101 kPa, x1 = 0.000472	1.014	0.9009	–	–	–	–
101 kPa, x1 = 0.000925	1.025	0.9102	–	–	–	–
101 kPa, x1 = 0.001	1.025	0.9152	0.8184	0.7362	0.6684	0.6111
101 kPa, x1 = 0.00135	1.036	0.9188	–	–	–	–
101 kPa, x1 = 0.0018	1.046	0.9279	–	–	–	–
101 kPa, x1 = 0.002	1.05	0.9359	0.8392	0.7538	0.6817	0.6235
101 kPa, x1 = 0.00224	1.057	0.937	–	–	–	–
101 kPa, x1 = 0.002288	–	0.946	0.842	0.757	0.684	–
101 kPa, x1 = 0.002647	1.067	0.9454	–	–	–	–
101 kPa, x1 = 0.003578	1.089	–	–	–	–	–
101 kPa, x1 = 0.004685	–	0.983	0.875	0.786	0.714	–
101 kPa, x1 = 0.005317	1.131	–	–	–	–	–
101 kPa, x1 = 0.007012	1.171	–	–	–	–	–
101 kPa, x1 = 0.009424	–	1.083	0.963	0.863	0.781	–
101 kPa, x1 = 0.01337	–	1.188	1.055	0.944	0.846	–
101 kPa, x1 = 0.01919	–	1.354	1.195	1.063	0.95	–
101 kPa, x1 = 0.02192	–	1.44	1.265	1.125	1.008	–
101 kPa, x1 = 0.02737	–	1.628	1.423	1.261	1.132	–
